Read-outs that look alike come from different tables or passages of the source.
Legend:
SU-DHL-4 cells = assay: Inhibitory effect on cell viability in SU-DHL-4 cell line (Test Example 1); type: cell-based, human; settings: 72 hours; for IC50: SU-DHL-4 (wild type) cells, calculated using the measurement results of test example 1, read-out: SU-DHL-4 WT IC50; for IC90: SU-DHL-4 cells, Cell Counting Kit-8, concentration showing 90% inhibition of cell viability, read-out: SU-DHL-4 Cell Viability Inhibition Rate IC90
Method in brief: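 SU-DHL-4 cells were grown at 37° C. under 5% CO2 in RPMI1640 with 10 vol % heat-inactivated FBS plus penicillin/streptomycin, seeded and precultured for 18 to 25 hours, then exposed to test compound at 0.1 vol % DMSO for 72 hours. Viability was read with Cell Counting Kit-8 by absorbance at 450 nm.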

[1] = test system: MYC mRNA expression in SU-DHL-4 cells; assay: Suppressive effect on MYC mRNA expression (Test Example 2); type: cell-based, human; settings: test compound 100 nmol/L, 6 hours, qRT-PCR corrected by ACTB, GAPDH; for Suppression Rate of MYC mRNA Expression (%): HPRT1; for inhibition at 0.1 µM: Homo sapiens, HPRT1, read-out: Suppression Rate of MYC mRNA Expression (%)
Method in brief: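 SU-DHL-4 cells were treated for 6 h at 37 °C with compound (0.1% DMSO final). MYC mRNA was measured by TaqMan qRT-PCR and normalised to the geometric mean of ACTB, GAPDH and HPRT1. Suppression was calculated relative to untreated wells.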

Structure (SMILES): CCC(=O)N1c2ccccc2[C@H](Nc2ccc(NC(=O)CCCC(=O)Nc3cccc(Oc4ccc(NS(=O)(=O)CC)cc4-c4cn(C)c(=O)cc4OC)c3)cc2)C[C@@H]1C [Compound 16j, N^1-(3-(4-(Ethylsulfonamide)-2-(4-methoxy-1-methyl-6-oxo-1,6-dihydropyridin-3-yl)phenoxy)phenyl)-N5-(4-(((2S,4R)-2-methyl-1-propionyl-1,2,3,4-tetrahydroquinolin-4-yl)amino)phenyl)glutaramide]
- IC50 (SU-DHL-4 cells): 0.5 nM
- IC90 (SU-DHL-4 cells): 3.09 nM
- Suppression Rate of MYC mRNA Expression (%) [1]: 92.4%

Structure (SMILES): CCC(=O)N1c2ccccc2C(Nc2ccc(NC(=O)C#CCNC(=O)c3ccc(N[C@@H]4C[C@H](C)N(C(=O)CC)c5ccccc54)cc3)cc2)CC1C (stereo partly drawn) [Compound 6h, 4-(((2S,4R)-2-Methyl-1-propionyl-1,2,3,4-tetrahydroquinolin-4-yl)amino)-N-(4-((4-((2-methyl-1-propionyl-1,2,3,4-tetrahydroquinolin-4-yl)amino)phenyl)amino)-4-oxobut-2-yn-1-yl)benzamide]
- IC50 (SU-DHL-4 cells; Homo sapiens): 0.003 nM
- inhibition at 0.1 µM [1]: 97.2%

Structure (SMILES): CCC(=O)N1c2ccccc2[C@H](NCCCCCCCC(=O)Nc2ccc(N[C@@H]3C[C@H](C)N(C(=O)CC)c4ccccc43)cc2)C[C@@H]1C (relative stereo) [Compound 12h, 8-(((2S*,4R*)-2-Methyl-1-propionyl-1,2,3,4-tetrahydroquinolin-4-yl)amino)-N-(4-(((2S,4R)-2-methyl-1-propionyl-1,2,3,4-tetrahydroquinolin-4-yl)amino)phenyl)octanamide]
- IC50 (SU-DHL-4 cells; Homo sapiens): 3.11 nM
- inhibition at 0.1 µM [1]: 96.5%

Structure (SMILES): CCC(=O)N1c2ccccc2[C@H](Nc2ccc(NC(=O)CCCC(=O)Nc3ccc(C(=O)N4CCC(=O)Nc5ccccc54)cc3)cc2)C[C@@H]1C [Compound 16o, N^1-(4-(((2S,4R)-2-Methyl-1-propionyl-1,2,3,4-tetrahydroquinolin-4-yl)amino)phenyl)-N5-(4-(4-oxo-2,3,4,5-tetra hydro-1H-benzo[b][1,4]diazepine-1-carbonyl)phenyl)glutaramide]
- IC50 (SU-DHL-4 cells; Homo sapiens): 24.8 nM
- IC90 (SU-DHL-4 cells; Homo sapiens): 80.3 nM
- inhibition at 0.1 µM [1]: 79.1%

Structure (SMILES): CCC(=O)N1c2ccccc2[C@H](Nc2ccc(NC(=O)N3CCN(C(=O)c4ccc(N[C@@H]5C[C@H](C)N(C(=O)CC)c6ccccc65)cc4)CC3)cc2)C[C@@H]1C (relative stereo) [Compound 6m, 4-(4-(((2S,4R)-2-Methyl-1-propionyl-1,2,3,4-tetrahydroquinolin-4-yl)amino)benzoyl)-N-(4-(((2S*,4R*)-2-methyl-1-propionyl-1,2,3,4-tetrahydroquinolin-4-yl)amino)phenyl)piperazine-1-carboxamide]
- IC50 (SU-DHL-4 cells; Homo sapiens): 0.08 nM
- inhibition at 0.1 µM [1]: 97%

Structure (SMILES): Cc1sc2c(c1C)C(c1ccc(NC(=O)C#CCNC(=O)c3ccc(C4=NCc5nnc(C)n5-c5sc(C)c(C)c54)cc3)cc1)=NCc1nnc(C)n1-2 [Compound 14e, N-(4-Oxo-4-((4-(2,3,9-trimethyl-6H-thieno[3,2-f][1,2,4]triazolo[4,3-a][1,4]diazepin-4-yl)phenyl)amino)but-2-yn-1-yl)-4-(2,3,9-trimethyl-6H-thieno[3,2-f][1,2,4]triazolo[4,3-a][1,4]diazepin-4-yl)benzamide]
- IC50 (SU-DHL-4 cells; Homo sapiens): 0.21 nM
- inhibition at 0.1 µM [1]: 96.7%

Structure (SMILES): CCC(=O)N1c2ccccc2[C@H](Nc2ccc(C(=O)NCCCNC(=O)c3ccc(C4=N[C@@H](CC(=O)OCCCOC)c5nnc(C)n5-c5sc(C)c(C)c54)cc3)cc2)C[C@@H]1C [Compound 13h, 3-Methoxypropyl 2-((S)-2,3,9-trimethyl-4-(4-((3-(4-(((2S,4R)-2-methyl-1-propionyl-1,2,3,4-tetrahydroquinolin-4-yl)amino)benzamide)propyl)carbamoyl)phenyl)-6H-thieno[3,2-f][1,2,4]triazolo[4,3-a][1,4]diazepin-6-yl)acetate]
- IC50 (SU-DHL-4 cells): 0.3 nM
- IC90 (SU-DHL-4 cells): 0.34 nM
- Suppression Rate of MYC mRNA Expression (%) [1]: 97.4%

Structure (SMILES): CCC(=O)N1c2ccccc2[C@H](N[C@H]2CC[C@H](NC(=O)C#CCNC(=O)[C@H]3CC[C@H](N[C@@H]4C[C@H](C)N(C(=O)CC)c5ccccc54)CC3)CC2)C[C@@H]1C (relative stereo) [Compound 9d, (1R,4R)-4-(((2S*,4R*)-2-Methyl-1-propionyl-1,2,3,4-tetrahydroquinolin-4-yl)amino)-N-(4-(((1R,4R)-4-(((2S,4R)-2-methyl-1-propionyl-1,2,3,4-tetrahydroquinolin-4-yl)amino)cyclohexyl)amino)-4-oxobut-2-yn-1-yl)cyclohexane-1-carboxamide]
- IC50 (SU-DHL-4 cells): 0.75 nM
- IC90 (SU-DHL-4 cells): 0.93 nM
- Suppression Rate of MYC mRNA Expression (%) [1]: 98.0%

Structure (SMILES): CCC(=O)N1c2ccccc2[C@H](Nc2ccc(C(=O)NCCCNC(=O)c3ccc(N[C@@H]4C[C@H](C)N(C(=O)CC)c5ccccc54)cc3)cc2)C[C@@H]1C (relative stereo) [Compound 1a, N,N′-(Propane-1,3-diyl)bis(4-{[(2S*,4R*)-2-methyl-1-propionyl-1,2,3,4-tetrahydroquinolin-4-yl]amino}benzamide)]
- IC50 (SU-DHL-4 cells; Homo sapiens): 1.13 nM
- inhibition at 0.1 µM [1]: 96.7%

Structure (SMILES): CCC(=O)N1c2ccccc2[C@H](Nc2ccc(NC(=O)N3CCN(C(=O)C4CCC(N[C@@H]5C[C@H](C)N(C(=O)CC)c6ccccc65)CC4)CC3)cc2)C[C@@H]1C (stereo partly drawn) [Compound 7p, 4-((1R,4r)-4-(((2S,4R)-2-Methyl-1-propionyl-1,2,3,4-tetrahydroquinolin-4-yl)amino)cyclohexane-1-carbonyl)-N-(4-(((2S,4R)-2-methyl-1-propionyl-1,2,3,4-tetrahydroquinolin-4-yl)amino)phenyl)piperazine-1-carboxamide]
- IC50 (SU-DHL-4 cells): 0.38 nM
- IC90 (SU-DHL-4 cells): 0.79 nM
- Suppression Rate of MYC mRNA Expression (%) [1]: 97.9%

Structure (SMILES): CCC(=O)N1c2ccccc2[C@H](Nc2ccc(NC(=O)CCCC(=O)NC3CCC(N[C@@H]4C[C@H](C)N(C(=O)CC)c5ccccc54)CC3)cc2)C[C@@H]1C (stereo partly drawn) [Compound 7o, N^1-((1R,4r)-4-(((2S,4R)-2-Methyl-1-propionyl-1,2,3,4-tetrahydroquinolin-4-yl)amino)cyclohexyl)-N^5-(4-(((2S,4R)-2-methyl-1-propionyl-1,2,3,4-tetrahydroquinolin-4-yl)amino)phenyl)glutaramide]
- IC50 (SU-DHL-4 cells): 0.53 nM
- IC90 (SU-DHL-4 cells): 1.15 nM
- Suppression Rate of MYC mRNA Expression (%) [1]: 97.4%

Structure (SMILES): CCC(=O)N1c2ccccc2[C@H](Nc2ccc(Cn3cc(C(=O)Nc4ccc(N[C@@H]5C[C@H](C)N(C(=O)CC)c6ccccc65)cc4)nn3)cc2)C[C@@H]1C [Compound 5j, 1-(4-(((2S,4R)-2-Methyl-1-propionyl-1,2,3,4-tetrahydroquinolin-4-yl)amino)benzyl)-N-(4-(((2S,4R)-2-methyl-1-propionyl-1,2,3,4-tetrahydroquinolin-4-yl)amino)phenyl)-1H-1,2,3-triazolee-4-carboxamide]
- IC50 (SU-DHL-4 cells): 0.04 nM
- IC90 (SU-DHL-4 cells): 0.08 nM
- Suppression Rate of MYC mRNA Expression (%) [1]: 96.8%

Structure (SMILES): CCC(=O)N1c2ccccc2[C@H](Nc2ccc(NC(=O)CCCC(=O)NC3CCN(Cc4cc(O)cc(-c5c(C)noc5C)c4)CC3)cc2)C[C@@H]1C [Compound 12c, N^1-(1-(3-(3,5-Dimethylisoxazol-4-yl)-5-hydroxybenzyl)piperidin-4-yl)-N^5-(4-(((2S,4R)-2-methyl-1-propionyl-1,2,3,4-tetrahydroquinolin-4-yl)amino)phenyl)glutaramide]
- IC50 (SU-DHL-4 cells; Homo sapiens): 0.22 nM
- IC90 (SU-DHL-4 cells; Homo sapiens): 0.56 nM
- inhibition at 0.1 µM [1]: 97.8%

Structure (SMILES): CCC(=O)N1c2ccccc2[C@H](Nc2ccc(NC(=O)CNC(=O)N[C@H]3CC[C@H](N[C@@H]4C[C@H](C)N(C(=O)CC)c5ccccc54)CC3)cc2)C[C@@H]1C [Compound 8j, 2-(3-((1R,4R)-4-(((2S,4R)-2-Methyl-1-propionyl-1,2,3,4-tetrahydroquinolin-4-yl)amino)cyclohexyl)ureido)-N-(4-(((2S,4R)-2-methyl-1-propionyl-1,2,3,4-tetrahydroquinolin-4-yl)amino)phenyl)acetamide]
- IC50 (SU-DHL-4 cells): 0.29 nM
- IC90 (SU-DHL-4 cells): 0.5 nM
- Suppression Rate of MYC mRNA Expression (%) [1]: 97.2%

Structure (SMILES): Cc1sc2c(c1C)C(c1ccc(Cl)cc1)=N[C@@H](CC(=O)NCCOCCOCCOCCOCCOCCOCCOCCNC(=O)C[C@@H]1N=C(c3ccc(Cl)cc3)c3c(sc(C)c3C)-n3c(C)nnc31)c1nnc(C)n1-2 [compound 2, reference compound]
- IC50 (SU-DHL-4 cells): 235 nM
- IC90 (SU-DHL-4 cells): > 10000 nM
- Suppression Rate of MYC mRNA Expression (%) [1]: 57.7%

Structure (SMILES): CCC(=O)N1c2ccccc2[C@H](Nc2ccc(SCCNC(=O)c3ccc(C4=N[C@@H](CC(=O)OCCN(C)C)c5nnc(C)n5-c5sc(C)c(C)c54)cc3)cc2)C[C@@H]1C [Compound 13a, 2-(Dimethylamino)ethyl 2-((S)-2,3,9-trimethyl-4-(4-((2-((4-(((2S,4R)-2-methyl-1-propionyl-1,2,3,4-tetrahydroquinolin-4-yl)amino)phenyl)thio)ethyl)carbamoyl)phenyl)-6H-thieno[3,2-f][1,2,4]triazolo[4,3-a][1,4]diazepin-6-yl)acetate]
- IC50 (SU-DHL-4 cells; Homo sapiens): 0.26 nM
- inhibition at 0.1 µM [1]: 97.6%

Structure (SMILES): CCC(=O)N1c2ccccc2[C@H](Nc2ccc(NC(=O)CCCC(=O)Nc3ccc(N[C@@H]4C[C@H](C)N(C(=O)CC)c5ccccc54)nc3)cc2)C[C@@H]1C [Compound 10k, N^1-(4-(((2S,4R)-2-Methyl-1-propionyl-1,2,3,4-tetrahydroquinolin-4-yl)amino)phenyl)-N^5-(6-(((2S,4R)-2-methyl-1-propionyl-1,2,3,4-tetrahydroquinolin-4-yl)amino)pyridin-3-yl)glutaramide]
- IC50 (SU-DHL-4 cells; Homo sapiens): 0.21 nM
- inhibition at 0.1 µM [1]: 97%
